# Assay results taken from patent US20090306142A1, “METHODS TO CONTROL QoI-RESISTANT FUNGAL PATHOGENS” (DOW AGROSCIENCES LLC, priority 2008, published 2009).
# Read-outs that look alike come from different tables or passages of the source.
# How the values were obtained:
# [1] = tested on: QoI-sensitive SEPTTR isolates ('WT'); assay: in vitro fungitoxicity, panel of SEPTTR isolates, QoI-sensitive; conditions: for mean EC50, QoI-Sensitive (n = 17): mean of 17 QoI-sensitive isolates
# Text: (§1) A panel of 31 SEPTTR isolates was used in in vitro fungitoxicity experiments. Most of the used isolates were isolated from wheat in the UK from 2001 to 2005.
# [2] = tested on: QoI-resistant SEPTTR isolates ('G143A'); assay: in vitro fungitoxicity, panel of SEPTTR isolates, QoI-resistant; conditions: for fold less active against QoI-resistant than QoI-sensitive isolates: resistant vs sensitive; for mean EC50, QoI-resistant (n = 14): mean of 14 QoI-resistant isolates
# Text: as §1
# [3] = tested on: SEPTTR field isolate R2004-6 (G143A mutation in cytochrome b)
# [4] = tested on: SEPTTR field isolate LARS 15; assay: in vitro fungitoxicity, microtiter plate assay, strobilurin-sensitive isolate; conditions: for LARS 15 EC50: isolate LARS 15, sensitive to strobilurins; for activity against the LARS 15 strain (in words): isolate LARS 15
# [5] = tested on: SEPTTR field isolate R2004-6 (G143A mutation in cytochrome b); assay: in vitro fungitoxicity, microtiter plate assay, strobilurin-resistant isolate; conditions: for R2004-6 EC50: isolate R2004-6, G143A, resistant to strobilurins; for activity against the QoI-resistant strain R2004-6 (in words): isolate R2004-6
# [6] = tested on: QoI-resistant SEPTTR isolates; assay: in-planta control of SEPTTR on wheat cultivar Riband, QoI-resistant isolates; assay type: in vivo, Septoria tritici; conditions: visual inspection 21 days after inoculation
Molecule,R2004-6 EC50 [3],LARS 15 EC50 [4],R2004-6 EC50 [5],also measured
"Fc1ccc([C@]2(Cn3cncn3)O[C@H]2c2ccccc2Cl)cc1 (racemic) [Epoxiconazole, epoxiconazole]",,,,"EC50 ([1]; Zymoseptoria tritici, read-out: mean EC50, QoI-Sensitive (n = 17)): 0.351 µg/mL; EC50 ([2]; Zymoseptoria tritici, read-out: mean EC50, QoI-resistant (n = 14)): 0.589 µg/mL; fold less active against QoI-resistant than QoI-sensitive isolates ([2]; ratio of mean EC50 values): 1.7 fold"
"C[C@@]1(c2ccc(Oc3ccccc3)cc2)OC(=O)N(Nc2ccccc2)C1=O (racemic) [Famoxadone, famoxadone]",>5 ppm,0.136 ppm,,
"CO/C=C(/C(=O)OC)c1ccccc1Oc1cc(Oc2ccccc2C#N)ncn1 [Azoxystrobin, azoxystrobin]",,0.011 ppm,3.00 ppm,"mean EC50, QoI-Sensitive (n = 17) [1]: 0.057 µg/mL; mean EC50, QoI-resistant (n = 14) [2]: 9.077 µg/mL; fold less active against QoI-resistant than QoI-sensitive isolates ([2]; ratio of mean EC50 values): 160 fold"
COc1ccnc(C(=O)N[C@H]2COC(=O)[C@H](Cc3ccccc3)[C@@H](OC(=O)C(C)C)[C@H](C)OC2=O)c1OCOC(=O)C(C)C [Compound 1],,0.169 ppm,0.122 ppm,"breaking rate for control of SEPTTR infection ([6]; isolate G3-03, QoI R): 0.9 ppm; breaking rate for control of SEPTTR infection ([6]; isolate TwistB-02, QoI R): 0.3 ppm; mean EC50, QoI-Sensitive (n = 17) [1]: 0.035 µg/mL; mean EC50, QoI-resistant (n = 14) [2]: 0.021 µg/mL; fold more active against QoI-resistant than QoI-sensitive isolates ([2]; ratio of mean EC50 values, sensitive vs resistant): 1.7 fold; activity against the LARS 15 strain (in words) [4]: highly active; activity against the QoI-resistant strain R2004-6 (in words) [5]: highly active"
CCC1(C)CC(NC(=O)c2cccc(NC=O)c2O)CC(C)(C)C1 (stereo not shown) [Compound 2],<0.0005 ppm,0.0006 ppm,,
COc1ccnc(C(=O)NC2CCCC(Sc3ccc(C(C)(C)C)cc3)C2)c1O (stereo not shown) [Compound 3],0.059 ppm,0.049 ppm,,
"CO/N=C(/C(=O)OC)c1ccccc1COc1ccccc1C [Kresoxim-methyl, kresoxim-methyl]",>5 ppm,<0.005 ppm,,
UK2A [UK-2A],,0.037 ppm,0.029 ppm,activity against the LARS 15 strain (in words) [4]: highly active; activity against the QoI-resistant strain R2004-6 (in words) [5]: highly active
antimycin A,,0.021 ppm,0.011 ppm,
